Results on two compounds are retold here after patent US9724312B2, “Agent for the prevention, improvement or treatment of retinal disease” (ROHTO PHARMACEUTICAL CO., LTD., priority 2012, dated 2017).

In one test the test system is PC12. As to the kind of experiment: Protective effect against ischemic cell death induced by hypoxia and low glucose (Cell Titer-Glo cell viability). It counts as cell-based, rat. The settings on record: 30 μM, 2 h pre-incubation, then low glucose/zero percent O2 8 h, FIG. 1, n=10, Tukey-Kramer. From the text: The progress of visual impairment in glaucoma is associated with retinal ganglion cell (RGC) death due to blood flow failure occurring near the optic nerve (Folia Pharmacol. Jpn. 128, 255-258 (2006)). With the use of PC12, which is a typical neural cell line established from rat adrenal […] pheochromocytoma and used also as a model cell for the functional evaluation of RGC (J Neurosci Res. 2000 May 15; 60(4): 495-503), the cytoprotective effect of GGA against ischemic cell death induced by hypoxia and low glucose was evaluated.
Test samples were prepared as follows. The test substances were four types of GGAs that contain the all-trans form and the 5Z-mono-cis form at a weight ratio of 10:0, 8:2, 6:4, and 0:10, respectively. […]
After 8 hours of incubation, 100 μL of an equivalent mixture of a cell viability detection reagent Cell Titer-Glo (Promega) and PBS was added to each well and the luminescence produced by the reaction with ATP in living cells was measured with a luminometer (GloMax; Promega). The cell viability was calculated from the measured luminescence by the following formula and the cytoprotective effect of GGA against oxidative stress by hydrogen peroxide was examined. Cell viability(%)=100×[(luminescence of base- or GGA-treated group)/(luminescence of non-treated group)]
(ATP-based viability assays read luminescence as a measure of living cells.)

The test system of test [1] is rat models with glaucoma induced by NMDA. The test can be described thus: Protective effect for retinal ganglion cells against nerve damage by NMDA (thickness of inner plexiform layer). It counts as in vivo. The following applies: once a day. From the text: In recent years the glutamate analogue NMDA (N-methyl-D-aspartate) has been widely reported to be one of causative agents of neurodegenerative diseases including Alzheimer's disease. In the ophthalmic field, NMDA is considered to be involved in optic nerve damage in glaucoma (Brain Research Bulletin, 81 (2010) 349-358). Accordingly, in this experiment rat models with glaucoma induced by NMDA were used to evaluate the neuroprotective effect of GGA.
To Sprague-Dawley (SD) rats, the all-trans form, the 5Z-mono-cis form and teprenone were separately pre-administered by oral administration (Test Example 1), intravitreal administration (Test Example 2) or ocular instillation administration (Test Example 3) and 5 μL of NMDA was administered into the vitreous body to induce nerve damage. For Test Example 2, a marketed therapeutic eye drop for glaucoma, AIPHAGAN (trade name), was intravitreally administered as a positive control once a day for five days. For each of Test Examples, a base not containing GGA or AIPHAGAN was administered as a control in the same manner as described above.
The dosage and regimen of Test Examples 1 to 3 are shown in Table 1 and the constitution of the base used in each tests are shown in Table 2.
Three days after administration of NMDA, the eyeballs were harvested, fixed with half Karnovsky's fixative for 24 hours, embedded in paraffin, thin sectioned and stained with hematoxylin-eosin (HE) to prepare histopathological sections. The histological sections were observed under an optical microscope and the thickness (μm) of the inner plexiform layer (IPL) of the retina was measured. From the thickness of the inner plexiform layer (IPL) of the retina, the neuroprotective effects of the test preparations were evaluated.

In another test the test system is glaucoma rat model. The following applies: intraperitoneal administration; cited from earlier work.
For test [2], the system named is mouse with visual cell damage induced by light irradiation. The following applies: oral administration; cited from earlier work.
Test [3] concerns mouse with retinal injury induced by ischemia. The following applies: oral administration; cited from earlier work.
Test [4] has as its system multiple sclerosis mouse model. The following applies: oral administration; cited from earlier work.
Test [5] has as its system retinal detachment-induced animal. The settings on record: intraperitoneal administration; cited from earlier work.
The mark [6] stands for this setting: Test Example 1: oral 800 mg/kg, 2 days, NMDA 4 mM, FIG. 6, Dunnett.

As for `CC(=O)CC/C=C(/C)CC/C=C(\C)CC/C=C(\C)CCC=C(C)C` [5Z-mono-cis form, (5Z,9E,13E)-6,10,14,18-tetramethyl-5,9,13,17-nonadecatetrae n-2-one], the “cytoprotective effect compared with GGA 6:4” value in the test on PC12 is recorded as “significantly higher cytoprotective effects”. For the same compound, the “neuroprotective effect against nerve damage by NMDA compared with base (IPL thickness)” value is “significant neuroprotective effects” in test [1] (setting [6]) and “significant neuroprotective effects” in test [1] (Test Example 2: intravitreal 0.05% w/v, 5 days, NMDA 40 mM, FIG. 7, Tukey-Kramer).
For teprenone, in the test on glaucoma rat model, the “expression of heat shock protein 72” value is “induced the expression of heat shock protein 72”; the “retinal ganglion cell death and optic nerve damage” value is “reduced retinal ganglion cell death and thereby ameliorated optic nerve damage”. The “induction of thioredoxin and heat shock protein 72 in the retinal pigment epithelium” value in test [2] is “induced thioredoxin and heat shock protein 72 in the retinal pigment epithelium”. The “number of surviving retinal neurons” value in test [3] was “significantly increased the number of surviving retinal neurons”. Also, in test [4], the “cell loss in the ganglion” value was “prevented cell loss in the ganglion”, the “number of degenerating axons in the optic nerve” value was “reduced the number of degenerating axons in the optic nerve” and the visual function result is given as “improved the visual function”. In test [1] (setting [6]), the “neuroprotective effect against nerve damage by NMDA compared with base (IPL thickness)” value is “did not show a significant neuroprotective effect”. In test [5], the “apoptosis of visual cells” value is on record as “reduced the apoptosis of visual cells significantly” and the “expression of heat shock protein 70” value is “induced the expression of heat shock protein 70”.
